Measurements from US6716866B2, “Aryl-benzimidazole compounds having antiinfective activity” (GeneSoft Pharmaceuticals, Inc., priority 2001, dated 2004).

Columns and labels:
Assay type in all cases: cell-based
E. faecium ATCC 51559 = experiment: MIC against drug-resistant bacteria, E. faecium ATCC 51559; conditions: organism A = E. faecium ATCC 51559, vancomycin resistant strain (VRE)
Method: (§1) Compounds according to this invention were screened for their in vitro activities against selected species of bacteria and fungi. The minimal inhibition concentration (MIC) of these compounds was determined using the National Committee for Clinical Laboratory Standards (NCCLS) broth microdilution assay in microtiter plates, as set forth in: (1) the guidelines of the National Committee for Clinical Laboratory Standards (NCCLS) Document M7-A4 (NCCLS, 1997); (2) the guidelines of the National Committee for Clinical Laboratory Standards (NCCLS) Document M11-A4 (NCCLS, 1997); and (3) the guidelines and reference method of the National Committee for Clinical Laboratory Standards (NCCLS) Document M27-T (NCCLS, 1995). For antifungal essays, the method recommended in Murray, PR., 1995 Manual of Clinical Microbiology (ASM Press, Washington, D.C.), was employed.
(§2) Further, compounds (I) are effective against drug-resistant bacteria, as evidenced by the data in Table 2 below:
(§3) ATCC 27660 and ATCC 33591 are methycillin resistant strains of S. aureus (MRSA's). ATCC 51559 is a vancomycin resistant strain of E. faecium (VRE). ATCC 12228 is a methycillin resistant strain of S. epidermis (MRSE). ATCC 51422 is a penicillin resistant strain of S. pneumoniae.

S. aureus ATCC 27660 = experiment: MIC against drug-resistant bacteria, S. aureus ATCC 27660; conditions: organism B = S. aureus ATCC 27660, methycillin resistant strain (MRSA)
Method: as §1, §2, §3

S. aureus ATCC 33591 = experiment: MIC against drug-resistant bacteria, S. aureus ATCC 33591; conditions: organism C = S. aureus ATCC 33591, methycillin resistant strain (MRSA)
Method: as §1, §2, §3

S. epidermis ATCC 12228 = experiment: MIC against drug-resistant bacteria, S. epidermis ATCC 12228; conditions: organism D = S. epidermis ATCC 12228, methycillin resistant strain (MRSE)
Method: as §1, §2, §3

S. pneumoniae ATCC 51422 = experiment: MIC against drug-resistant bacteria, S. pneumoniae ATCC 51422; conditions: organism E = S. pneumoniae ATCC 51422, penicillin resistant strain
Method: as §1, §2, §3

Compound | Minimum Inhibitoty Concentration (MIC) (E. faecium ATCC 51559) | Minimum Inhibitoty Concentration (MIC) (S. aureus ATCC 27660) | Minimum Inhibitoty Concentration (MIC) (S. aureus ATCC 33591) | Minimum Inhibitoty Concentration (MIC) (S. epidermis ATCC 12228) | Minimum Inhibitoty Concentration (MIC) (S. pneumoniae ATCC 51422)
Cn1cc(NC(=O)c2ccc(F)cc2F)cc1C(=O)Nc1cc(-c2nc3ccc(C(=O)NCCN4CCOCC4)cc3[nH]2)n(C)c1 [Compound I-19] | +++ (MIC ≦4) | +++ (MIC ≦4) | +++ (MIC ≦4) | +++ (MIC ≦4) | +++ (MIC ≦4)
Cn1cc(NC(=O)c2sc3ccccc3c2Cl)cc1C(=O)Nc1cc(-c2nc3ccc(C(=O)NCCN4CCCCC4)cc3[nH]2)n(C)c1 [Compound I-24] |  | +++ (MIC ≦4) |  |  | 
Cn1cc(NC(=O)c2ccc(F)cc2F)cc1C(=O)Nc1cc(-c2nc3ccc(C(=O)NCCN4CCCCC4)cc3[nH]2)n(C)c1 [Compound I-21] | +++ (MIC ≦4) | +++ (MIC ≦4) | +++ (MIC ≦4) | +++ (MIC ≦4) | +++ (MIC ≦4)
Cn1cc(NC(=O)c2sc3ccccc3c2Cl)cc1C(=O)Nc1cc(-c2nc3ccc(C(=O)NCCN4CCSCC4)cc3[nH]2)n(C)c1 [Compound I-23] | +++ (MIC ≦4) | +++ (MIC ≦4) | ++ (MIC between 4 and 12) | +++ (MIC ≦4) | +++ (MIC ≦4)
CCN(CC)CCNC(=O)c1ccc2nc(-c3cc(NC(=O)c4cc(NC(=O)c5sc6ccccc6c5Cl)cn4C)cn3C)[nH]c2c1 [Compound I-25] |  | +++ (MIC ≦4) |  |  | 
Cn1cc(NC(=O)c2cc3ccccc3cn2)cc1C(=O)Nc1cc(-c2nc3ccc(C(=O)NCCN4CCC(O)CC4)cc3[nH]2)n(C)c1 [Compound I-32] | +++ (MIC ≦4) | +++ (MIC ≦4) | +++ (MIC ≦4) | +++ (MIC ≦4) | +++ (MIC ≦4)
CCOC(=O)c1ccc2nc(-c3cc(NC(=O)c4cc(NC(=O)c5ccc(F)cc5NCCN5CCSCC5)cn4C)cn3C)[nH]c2c1 [Compound I-17] |  | +++ (MIC ≦4) |  |  | 
Cn1cc(NC(=O)c2ccc3nc(-c4cc(NC(=O)c5ccc(F)cc5F)cn4C)[nH]c3c2)cc1C(=O)NCCN1CCCCC1 [Compound I-35] | +++ (MIC ≦4) | +++ (MIC ≦4) | +++ (MIC ≦4) | +++ (MIC ≦4) | +++ (MIC ≦4)
Cn1cc(NC(=O)c2ccc3nc(-c4cc(NC(=O)c5cc6ccccc6cn5)cn4C)[nH]c3c2)cc1C(=O)NCCN1CCOCC1 [Compound I-31] | +++ (MIC ≦4) | +++ (MIC ≦4) | +++ (MIC ≦4) | +++ (MIC ≦4) | +++ (MIC ≦4)
Cn1cc(NC(=O)c2ccc(Cl)cc2F)cc1C(=O)Nc1cc(-c2nc3ccc(C(=O)NCCN4CCOCC4)cc3[nH]2)n(C)c1 [Compound I-13] | +++ (MIC ≦4) | +++ (MIC ≦4) | +++ (MIC ≦4) | +++ (MIC ≦4) | +++ (MIC ≦4)
Cn1cc(NC(=O)c2ccc(Cl)cc2F)cc1C(=O)Nc1cc(-c2nc3ccc(C(=O)NCCN4CCCCC4)cc3[nH]2)n(C)c1 [Compound I-15] | +++ (MIC ≦4) | +++ (MIC ≦4) | +++ (MIC ≦4) | +++ (MIC ≦4) | +++ (MIC ≦4)
C[C@@H]1CN(CCNC(=O)c2ccc3nc(-c4cc(NC(=O)c5cc(NC(=O)c6sc7ccccc7c6Cl)cn5C)cn4C)[nH]c3c2)C[C@H](C)O1 [Compound I-26] | +++ (MIC ≦4) | +++ (MIC ≦4) | + (MIC from 12 to 32, inclusive) | +++ (MIC ≦4) | +++ (MIC ≦4)
CCOC(=O)c1ccc2nc(-c3cc(NC(=O)c4cc(NC(=O)c5ccc(F)cc5NCCN5CCCCC5)cn4C)cn3C)[nH]c2c1 [Compound I-18] |  | +++ (MIC ≦4) |  |  | 
Cn1cc(NC(=O)c2sccc2Cl)cc1C(=O)Nc1cc(-c2nc3ccc(C(=O)NCCN4CCSCC4)cc3[nH]2)n(C)c1 [Compound I-38] | +++ (MIC ≦4) | +++ (MIC ≦4) | +++ (MIC ≦4) | +++ (MIC ≦4) | +++ (MIC ≦4)
CCN(CC)CCNC(=O)c1ccc2nc(-c3cc(NC(=O)c4cc(NC(=O)c5sccc5Cl)cn4C)cn3C)[nH]c2c1 [Compound I-40] | +++ (MIC ≦4) | +++ (MIC ≦4) | +++ (MIC ≦4) | +++ (MIC ≦4) | +++ (MIC ≦4)
Cn1cc(NC(=O)c2ccc3nc(-c4cc(NC(=O)c5ccc(Cl)cc5F)cn4C)[nH]c3c2)cc1C(=O)NCCN1CCCCC1 [Compound I-28] | +++ (MIC ≦4) | +++ (MIC ≦4) |  | +++ (MIC ≦4) | 
CCN(CC)CCNC(=O)c1ccc2nc(-c3cc(NC(=O)c4cc(NC(=O)c5cc6ccccc6cn5)cn4C)cn3C)[nH]c2c1 [Compound I-27] | +++ (MIC ≦4) | +++ (MIC ≦4) |  | +++ (MIC ≦4) | 
Cn1cc(NC(=O)c2ccc(Cl)cc2F)cc1C(=O)Nc1cc(-c2nc3ccc(C(=O)NCCN4CCSCC4)cc3[nH]2)n(C)c1 [Compound I-14] | +++ (MIC ≦4) | +++ (MIC ≦4) | +++ (MIC ≦4) | +++ (MIC ≦4) | +++ (MIC ≦4)
COCn1cc(NC(=O)c2ccc3nc(-c4cc(NC(=O)c5sccc5Cl)cn4C)[nH]c3c2)cc1C(=O)NCCN1CCSCC1 [Compound I-34] |  |  | +++ (MIC ≦4) | +++ (MIC ≦4) | 
Cn1cc(NC(=O)c2ccc(F)cc2F)cc1C(=O)Nc1cc(-c2nc3ccc(C(=O)NCCN4CCSCC4)cc3[nH]2)n(C)c1 [Compound I-20] | +++ (MIC ≦4) | +++ (MIC ≦4) | +++ (MIC ≦4) | +++ (MIC ≦4) | +++ (MIC ≦4)
Cn1cc(NC(=O)c2cc3ccccc3cn2)cc1C(=O)Nc1cc(-c2nc3ccc(C(=O)NCCN4CCSCC4)cc3[nH]2)n(C)c1 [Compound I-30] | +++ (MIC ≦4) | +++ (MIC ≦4) |  | +++ (MIC ≦4) | 
CCOC(=O)c1ccc2nc(-c3cc(NC(=O)c4cc(NC(=O)c5ccc(F)cc5NCCN5CCOCC5)cn4C)cn3C)[nH]c2c1 [Compound I-16] |  | + (MIC from 12 to 32, inclusive) |  |  | 
CCN(CC)CCCNC(=O)c1ccc2nc(-c3cc(NC(=O)c4cc(NC(=O)c5cc6ccccc6cn5)cn4C)cn3C)[nH]c2c1 [Compound I-37] |  | +++ (MIC ≦4) | +++ (MIC ≦4) |  | 
